Assay results taken from patent US7943340B2, “Fungal dipeptidyl peptidase IV (DPPIV) enzyme for reagent use” (priority 2003, dated 2011).
Read-outs that look alike come from different tables or passages of the source.

Key:
[1] = target: T1, pkLAP (microsomal LAP from porcine kidney) (Sus scrofa, UniProt P15145); assay: Effect of chemical reagents (inhibitors, metallic cations) on LAP activity with Leu-AMC; format: biochemical; conditions: for pkLAP hydrolytic activity, percentage of control without any cation / pkLAP hydrolytic activity, percentage of control without inhibitor: Leu-MCA substrate; for effect of divalent cation on pkLAP activity: Leu-AMC substrate
T1 construct: purchased Sigma; host or cells: porcine kidney
T1 sequence (P15145 1-963): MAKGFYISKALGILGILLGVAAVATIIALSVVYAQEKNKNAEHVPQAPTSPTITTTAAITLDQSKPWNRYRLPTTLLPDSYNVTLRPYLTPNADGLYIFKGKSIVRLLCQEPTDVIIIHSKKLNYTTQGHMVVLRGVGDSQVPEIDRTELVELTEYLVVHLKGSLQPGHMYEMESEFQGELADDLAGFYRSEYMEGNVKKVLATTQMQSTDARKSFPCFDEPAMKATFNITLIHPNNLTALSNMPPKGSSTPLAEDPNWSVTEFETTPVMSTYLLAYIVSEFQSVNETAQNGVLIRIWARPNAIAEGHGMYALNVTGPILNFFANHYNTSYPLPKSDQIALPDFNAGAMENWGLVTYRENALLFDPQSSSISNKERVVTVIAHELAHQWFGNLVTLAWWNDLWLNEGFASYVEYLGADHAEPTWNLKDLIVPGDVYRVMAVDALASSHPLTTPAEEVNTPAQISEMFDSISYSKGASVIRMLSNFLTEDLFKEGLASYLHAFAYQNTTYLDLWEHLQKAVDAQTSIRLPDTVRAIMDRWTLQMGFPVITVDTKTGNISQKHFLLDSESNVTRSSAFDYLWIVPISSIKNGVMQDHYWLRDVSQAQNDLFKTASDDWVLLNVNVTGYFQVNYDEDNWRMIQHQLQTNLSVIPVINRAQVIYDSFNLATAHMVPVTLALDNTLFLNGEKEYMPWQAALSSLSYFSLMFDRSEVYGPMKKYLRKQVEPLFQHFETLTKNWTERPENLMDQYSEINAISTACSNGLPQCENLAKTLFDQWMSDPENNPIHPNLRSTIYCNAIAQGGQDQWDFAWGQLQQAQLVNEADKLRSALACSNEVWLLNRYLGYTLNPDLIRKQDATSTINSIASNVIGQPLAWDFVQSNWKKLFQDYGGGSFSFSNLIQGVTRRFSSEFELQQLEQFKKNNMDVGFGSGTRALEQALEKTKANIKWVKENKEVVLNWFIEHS
Experimental: (§1) Inhibitors and metallic cations were pre-incubated with the enzymes for 15 min at 37° C. Then, Leu-AMC at a 5 mM final concentration was added. After further incubation for 60 min, enzyme activity was measured as described above. The inhibitors and their concentrations tested purified LAPs were: 500 μM amastatin (Bachem), 40 μM benzamidine (Sigma), 500 μM bestatin (Bachem), 5 mM/l mM EDTA (Sigma). 100 μM E-64 (L-trans-epoxysuccinyl-leu-4-guanidinobutylamide) (Bachem), 100 μM leupeptin (Sigma), 5 mM/1 mM ortho-phenanthroline (Sigma), 500 μM p-chloromercuribenzoic acid (Sigma), 100 μM pepstatin A (Sigma), 40 μM PMSF (Sigma), 20 μM TLCK (Roche Diagnostics), and 20 μM TPCK (Roche Diagnostics).

fuLAP2 = format: biochemical, Aspergillus fumigatus; conditions: for effect of divalent cation on fuLAP2 activity: Leu-AMC substrate; for fuLAP2 hydrolytic activity, percentage of control without any cation / fuLAP2 hydrolytic activity, percentage of control without inhibitor: Leu-MCA substrate
Experimental: as §1

ruLAP1 = ruLAP1 (Trichophyton rubrum, UniProt Q5QHG5); format: biochemical; conditions: for ruLAP1 hydrolytic activity, percentage of control without any cation / ruLAP1 hydrolytic activity, percentage of control without inhibitor: Leu-MCA substrate
Chain of ruLAP1 (Q5QHG5 19-373): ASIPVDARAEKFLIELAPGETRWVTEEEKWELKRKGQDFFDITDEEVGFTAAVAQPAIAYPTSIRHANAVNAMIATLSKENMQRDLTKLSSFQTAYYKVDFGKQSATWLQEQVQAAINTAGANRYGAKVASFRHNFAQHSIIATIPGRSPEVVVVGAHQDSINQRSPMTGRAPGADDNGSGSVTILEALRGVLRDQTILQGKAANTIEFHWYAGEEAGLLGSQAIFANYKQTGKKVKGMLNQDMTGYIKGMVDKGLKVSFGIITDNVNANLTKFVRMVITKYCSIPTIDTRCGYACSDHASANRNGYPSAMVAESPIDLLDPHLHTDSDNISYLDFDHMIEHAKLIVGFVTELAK
Experimental: as §1

[2] = tested on: all the LAPs tested (ruLAP1, ruLAP2, fuLAP1, fuLAP2, pkLAP); format: biochemical; conditions: for effect of inhibitor on all the LAPs tested: Leu-AMC 5 mM, amastatin 500 μM, ortho-phenantroline 1 and 5 mM, others as
Experimental: as §1

ruLAP2 = ruLAP2 (Trichophyton rubrum, UniProt Q5QHG6); format: biochemical; conditions: for ruLAP2 hydrolytic activity, percentage of control without any cation / ruLAP2 hydrolytic activity, percentage of control without inhibitor: Leu-MCA substrate; for effect of inhibitor on ruLAP2 activity: Leu-AMC 5 mM, inhibitor concentrations
Chain of ruLAP2 (Q5QHG6 22-495): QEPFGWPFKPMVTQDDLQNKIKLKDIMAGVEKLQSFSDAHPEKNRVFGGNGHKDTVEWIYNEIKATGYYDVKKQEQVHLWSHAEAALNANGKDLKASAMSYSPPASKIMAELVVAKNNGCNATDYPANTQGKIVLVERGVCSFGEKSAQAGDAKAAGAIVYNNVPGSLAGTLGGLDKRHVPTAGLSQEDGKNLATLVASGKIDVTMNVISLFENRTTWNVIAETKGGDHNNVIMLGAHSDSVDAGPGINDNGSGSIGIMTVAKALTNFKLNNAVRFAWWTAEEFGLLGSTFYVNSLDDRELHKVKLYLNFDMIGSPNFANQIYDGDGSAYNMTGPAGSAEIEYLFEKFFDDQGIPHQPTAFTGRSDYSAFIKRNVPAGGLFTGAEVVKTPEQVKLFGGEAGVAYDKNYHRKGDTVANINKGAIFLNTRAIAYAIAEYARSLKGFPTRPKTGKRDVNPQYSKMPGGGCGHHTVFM
Experimental: as §1

fuLAP1 = fuLAP1 (Aspergillus fumigatus, UniProt Q5VJG6); format: biochemical; conditions: for fuLAP1 hydrolytic activity, percentage of control without any cation / fuLAP1 hydrolytic activity, percentage of control without inhibitor: Leu-MCA substrate
Chain of fuLAP1 (Q5VJG6 15-388, looked up, natural form): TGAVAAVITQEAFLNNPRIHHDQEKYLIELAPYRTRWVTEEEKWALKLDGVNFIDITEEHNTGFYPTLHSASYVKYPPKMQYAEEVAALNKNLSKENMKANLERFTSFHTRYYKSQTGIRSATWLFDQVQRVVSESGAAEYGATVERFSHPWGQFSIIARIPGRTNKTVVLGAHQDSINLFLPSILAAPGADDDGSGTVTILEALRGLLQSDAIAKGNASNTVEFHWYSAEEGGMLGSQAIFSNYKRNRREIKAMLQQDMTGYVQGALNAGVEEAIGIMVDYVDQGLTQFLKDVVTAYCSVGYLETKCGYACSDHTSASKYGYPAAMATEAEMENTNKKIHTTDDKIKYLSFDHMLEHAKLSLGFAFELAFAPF
Experimental: as §1

gliadin 33 mer = assay: Digestion of gliadin 33 mer (RP-HPLC, ESI-MS); format: biochemical, wheat; conditions: 20 h; combinations with both enzymes at E/S (w:w) 1:50
[3] = Leu-AMC 5 mM, inhibitor concentrations
[4] = Leu-AMC 5 mM, inhibitor concentrations, pepstatin 0.1 mM

Row | Molecule | pkLAP hydrolytic activity, percentage of control without any cation ([1]; cation salt 0.5 mM) | pkLAP hydrolytic activity, percentage of control without any cation ([1]; cation salt 1 mM) | fuLAP2 hydrolytic activity, percentage of control without any cation (fuLAP2; cation salt 0.5 mM) | fuLAP2 hydrolytic activity, percentage of control without any cation (fuLAP2; cation salt 1 mM) | ruLAP1 hydrolytic activity, percentage of control without any cation (ruLAP1; cation salt 0.5 mM) | ruLAP1 hydrolytic activity, percentage of control without any cation (ruLAP1; cation salt 1 mM) | ruLAP2 hydrolytic activity, percentage of control without any cation (ruLAP2; cation salt 0.5 mM) | ruLAP2 hydrolytic activity, percentage of control without any cation (ruLAP2; cation salt 1 mM) | fuLAP1 hydrolytic activity, percentage of control without any cation (fuLAP1; cation salt 0.5 mM) | fuLAP1 hydrolytic activity, percentage of control without any cation (fuLAP1; cation salt 1 mM) | effect of inhibitor on all the LAPs tested [2] | further results
1 | [Cl-].[Cl-].[Co+2] [Co^++, CoCl2] | 876.1% | 899.8% | 378.0% | 662.7% | 210.2% | 202.1% | 591.2% | 789.7% | 104.3% | 96.5% |  | effect of divalent cation on fuLAP2 activity (fuLAP2): highly activated; increase of the activity of the LAPs ([2]; concentration up to 1 mM, with the exception of fuLAP1): 200% to 900%; effect of divalent cation on ruLAP2 activity (ruLAP2; Leu-AMC substrate): highly activated
2 | CC(=O)N[C@@H](CC(C)C)C(=O)N[C@@H](CC(C)C)C(=O)N[C@H](C=O)CCCNC(=N)N [Leupeptin, leupeptin] |  |  |  |  |  |  |  |  |  |  | no clear inhibitory effects | fuLAP2 hydrolytic activity, percentage of control without inhibitor (fuLAP2; inhibitor 100 μM): 61%
3 | [Cl][Mn][Cl] [Mn^++, MnCl2] | 157.6% | 165.8% | 84.3% | 140.2% | 120.7% | 105.2% | 77.5% | 86.8% | 25.9% | 28.4% |  | effect of divalent cation on fuLAP2 activity (fuLAP2): activated; effect of divalent cation on fuLAP1 activity (fuLAP1; Leu-AMC substrate): inhibited
4 | [Cl][Ni][Cl] [Ni, NiCl2] | 1187.7% | 1158.7% | 98.4% | 149.3% | 74.8% | 58.1% | 130.5% | 147.9% | 51.7% | 37.2% |  | effect of divalent cation on pkLAP activity [1]: highly activated
5 | Cc1ccc(S(=O)(=O)N[C@@H](CCCCN)C(=O)CCl)cc1 [TLCK] |  |  |  |  |  |  |  |  |  |  | no clear inhibitory effects | pkLAP hydrolytic activity, percentage of control without inhibitor ([1]; inhibitor 20 μM): 113%; fuLAP2 hydrolytic activity, percentage of control without inhibitor (fuLAP2; inhibitor 20 μM): 120%; ruLAP1 hydrolytic activity, percentage of control without inhibitor (ruLAP1; inhibitor 20 μM): 68%; ruLAP2 hydrolytic activity, percentage of control without inhibitor (ruLAP2; inhibitor 20 μM): 96%; fuLAP1 hydrolytic activity, percentage of control without inhibitor (fuLAP1; inhibitor 20 μM): 80%
6 | Cc1ccc(S(=O)(=O)N[C@@H](Cc2ccccc2)C(=O)CCl)cc1 [TPCK] |  |  |  |  |  |  |  |  |  |  | no clear inhibitory effects | pkLAP hydrolytic activity, percentage of control without inhibitor ([1]; inhibitor 20 μM): 108%; fuLAP2 hydrolytic activity, percentage of control without inhibitor (fuLAP2; inhibitor 20 μM): 87%; ruLAP1 hydrolytic activity, percentage of control without inhibitor (ruLAP1; inhibitor 20 μM): 68%; ruLAP2 hydrolytic activity, percentage of control without inhibitor (ruLAP2; inhibitor 20 μM): 79%; fuLAP1 hydrolytic activity, percentage of control without inhibitor (fuLAP1; inhibitor 20 μM): 95%
7 | [Cl-].[Cl-].[Zn+2] [Zn, ZnCl2] | 437.6% | 297.9% | 51.4% | 119.5% | 43.0% | 68.9% | 77.9% | 88.9% | 60.7% | 53.2% |  | effect of divalent cation on pkLAP activity [1]: highly activated
8 | CC(C)C[C@@H](N)[C@H](O)C(=O)N[C@H](C(=O)N[C@H](C(=O)N[C@@H](CC(=O)O)C(=O)O)C(C)C)C(C)C [amastatin] |  |  |  |  |  |  |  |  |  |  | strongly or totally inhibited | fuLAP2 hydrolytic activity, percentage of control without inhibitor (fuLAP2; inhibitor 500 μM): 0%
9 | N=C(N)c1ccccc1 [benzamidine] |  |  |  |  |  |  |  |  |  |  | no clear inhibitory effects | fuLAP2 hydrolytic activity, percentage of control without inhibitor (fuLAP2; inhibitor 40 μM): 91%
10 | CC(C)C[C@H](NC(=O)[C@@H](O)[C@H](N)Cc1ccccc1)C(=O)O [bestatin] |  |  |  |  |  |  |  |  |  |  |  | effect of inhibitor on pkLAP activity [1, 3]: inhibited; effect of inhibitor on fuLAP2 activity (fuLAP2; [3]): only partial inhibitory effect; fuLAP2 hydrolytic activity, percentage of control without inhibitor (fuLAP2; inhibitor 500 μM): 88%; effect of inhibitor on ruLAP1 activity (ruLAP1; [4]): inhibited; effect of inhibitor on ruLAP2 activity (ruLAP2): only partial inhibitory effect; effect of inhibitor on fuLAP1 activity (fuLAP1; [4]): inhibited
11 | c1cnc2c(c1)ccc1cccnc12 [orthophenanthroline] |  |  |  |  |  |  |  |  |  |  |  | pkLAP hydrolytic activity, percentage of control without inhibitor ([1]; inhibitor 1 mM): 0%; pkLAP hydrolytic activity, percentage of control without inhibitor ([1]; inhibitor 5 mM): 0%; fuLAP2 hydrolytic activity, percentage of control without inhibitor (fuLAP2; inhibitor 1 mM): 0%; fuLAP2 hydrolytic activity, percentage of control without inhibitor (fuLAP2; inhibitor 5 mM): 0%; ruLAP1 hydrolytic activity, percentage of control without inhibitor (ruLAP1; inhibitor 1 mM): 0%; ruLAP1 hydrolytic activity, percentage of control without inhibitor (ruLAP1; inhibitor 5 mM): 0%; ruLAP2 hydrolytic activity, percentage of control without inhibitor (ruLAP2; inhibitor 1 mM): 0%; ruLAP2 hydrolytic activity, percentage of control without inhibitor (ruLAP2; inhibitor 5 mM): 0%; fuLAP1 hydrolytic activity, percentage of control without inhibitor (fuLAP1; inhibitor 1 mM): 0%; fuLAP1 hydrolytic activity, percentage of control without inhibitor (fuLAP1; inhibitor 5 mM): 0%
12 | O=C(O)c1cc[c]([Hg][Cl])cc1 [p-chloromercuribenzoate, p-chloromercuribenzoic acid] |  |  |  |  |  |  |  |  |  |  |  | pkLAP hydrolytic activity, percentage of control without inhibitor ([1]; inhibitor 500 μM): 59%; fuLAP2 hydrolytic activity, percentage of control without inhibitor (fuLAP2; inhibitor 500 μM): 96%; ruLAP1 hydrolytic activity, percentage of control without inhibitor (ruLAP1; inhibitor 500 μM): 32%; effect of inhibitor on ruLAP2 activity (ruLAP2): blunted the activity; ruLAP2 hydrolytic activity, percentage of control without inhibitor (ruLAP2; inhibitor 500 μM): 21%; fuLAP1 hydrolytic activity, percentage of control without inhibitor (fuLAP1; inhibitor 500 μM): 90%
13 | Chymotrypsin [reference compound] |  |  |  |  |  |  |  |  |  |  |  | digestion of the peptide with other enzymes (gliadin 33 mer): not able to breakdown the peptide
